Data published in PubChem BioAssay (NCI).
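Following 48 hours of exposure in 96-well plates, responses at five concentrations were used to interpolate endpoints linearly. The concentration for 50% growth inhibition is given as GI50. TGI: concentration producing complete growth inhibition.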

Key:
Assay in all cases: DTP human tumour cell line panel, 48 h
786-0 renal = system: 786-0 renal
A498 renal = system: A498 renal
A549 NSCLC = system: A549 NSCLC
ACHN renal = system: ACHN renal
BT-549 breast = system: BT-549 breast
CAKI-1 renal = system: CAKI-1 renal
CCRF-CEM leukemia = system: CCRF-CEM leukemia
COLO 205 colon = system: COLO 205 colon
DU-145 prostate = system: DU-145 prostate
EKVX NSCLC = system: EKVX NSCLC
HCT-116 colon = system: HCT-116 colon
HCT-15 colon = system: HCT-15 colon
HL-60(TB) leukemia = system: HL-60(TB) leukemia
HOP-62 NSCLC = system: HOP-62 NSCLC
HOP-92 NSCLC = system: HOP-92 NSCLC
HS 578T breast = system: HS 578T breast
HT29 colon = system: HT29 colon
IGROV1 ovarian = system: IGROV1 ovarian
K-562 leukemia = system: K-562 leukemia
KM12 colon = system: KM12 colon
LOX IMVI melanoma = system: LOX IMVI melanoma
M14 melanoma = system: M14 melanoma
MALME-3M melanoma = system: MALME-3M melanoma
MCF7 breast = system: MCF7 breast
MDA-MB-231 breast = system: MDA-MB-231 breast
MDA-MB-435 = system: MDA-MB-435
MOLT-4 leukemia = system: MOLT-4 leukemia
NCI-H226 lung = system: NCI-H226 lung
NCI-H23 lung = system: NCI-H23 lung
NCI-H460 lung = system: NCI-H460 lung
NCI-H522 lung = system: NCI-H522 lung
NCI/ADR-RES ovarian = system: NCI/ADR-RES ovarian
OVCAR-3 ovarian = system: OVCAR-3 ovarian
OVCAR-4 ovarian = system: OVCAR-4 ovarian
OVCAR-5 ovarian = system: OVCAR-5 ovarian
OVCAR-8 ovarian = system: OVCAR-8 ovarian
PC-3 prostate = system: PC-3 prostate
RPMI-8226 leukemia = system: RPMI-8226 leukemia
RXF 393 renal = system: RXF 393 renal
SF-268 CNS = system: SF-268 CNS
SF-295 CNS = system: SF-295 CNS
SF-539 CNS = system: SF-539 CNS
SK-MEL-2 melanoma = system: SK-MEL-2 melanoma
SK-MEL-28 melanoma = system: SK-MEL-28 melanoma
SK-MEL-5 melanoma = system: SK-MEL-5 melanoma
SK-OV-3 ovarian = system: SK-OV-3 ovarian
SN12C renal = system: SN12C renal
SNB-19 CNS = system: SNB-19 CNS
SNB-75 CNS = system: SNB-75 CNS
SR leukemia = system: SR leukemia
SW-620 colon = system: SW-620 colon
T-47D breast = system: T-47D breast
TK-10 renal = system: TK-10 renal
U251 CNS = system: U251 CNS
UACC-257 melanoma = system: UACC-257 melanoma
UACC-62 melanoma = system: UACC-62 melanoma
UO-31 renal = system: UO-31 renal

O=C1Nc2ccccc2/C1=C\c1c(-c2ccccc2)nc2sccn12
GI50 (786-0 renal): 2.39 µM
TGI (786-0 renal): 9.23 µM
GI50 (A498 renal): 0.927 µM
TGI (A498 renal): 5.33 µM
GI50 (A549 NSCLC): 3.5 µM
TGI (A549 NSCLC): > 100 µM
GI50 (ACHN renal): 2.13 µM
TGI (ACHN renal): 14.5 µM
GI50 (BT-549 breast): 3.3 µM
TGI (BT-549 breast): 16.9 µM
GI50 (CAKI-1 renal): 1.29 µM
TGI (CAKI-1 renal): 4.74 µM
GI50 (CCRF-CEM leukemia): 0.689 µM
TGI (CCRF-CEM leukemia): 19.8 µM
GI50 (COLO 205 colon): 2.23 µM
TGI (COLO 205 colon): 16.4 µM
GI50 (DU-145 prostate): 7.31 µM
TGI (DU-145 prostate): 31.1 µM
GI50 (EKVX NSCLC): 7.84 µM
TGI (EKVX NSCLC): 32.6 µM
GI50 (HCT-116 colon): 1.7 µM
TGI (HCT-116 colon): 8.96 µM
GI50 (HCT-15 colon): 1.08 µM
TGI (HCT-15 colon): 8.39 µM
GI50 (HL-60(TB) leukemia): 0.999 µM
TGI (HL-60(TB) leukemia): 7.33 µM
GI50 (HOP-62 NSCLC): 2.32 µM
TGI (HOP-62 NSCLC): 9.44 µM
GI50 (HOP-92 NSCLC): 2.14 µM
TGI (HOP-92 NSCLC): 7.87 µM
GI50 (HS 578T breast): 5.58 µM
TGI (HS 578T breast): 18.7 µM
GI50 (HT29 colon): 3.14 µM
TGI (HT29 colon): 36.9 µM
GI50 (IGROV1 ovarian): 1.98 µM
TGI (IGROV1 ovarian): > 54.2 µM
GI50 (K-562 leukemia): 0.624 µM
TGI (K-562 leukemia): > 45.8 µM
GI50 (KM12 colon): 0.833 µM
TGI (KM12 colon): 20.1 µM
GI50 (LOX IMVI melanoma): 2.09 µM
TGI (LOX IMVI melanoma): 13.8 µM
GI50 (M14 melanoma): 1.98 µM
TGI (M14 melanoma): 7.61 µM
GI50 (MALME-3M melanoma): 1.92 µM
TGI (MALME-3M melanoma): 21.7 µM
GI50 (MCF7 breast): 2.95 µM
TGI (MCF7 breast): 22.7 µM
GI50 (MDA-MB-231 breast): 1.39 µM
TGI (MDA-MB-231 breast): 6.18 µM
GI50 (MDA-MB-435): 0.354 µM
TGI (MDA-MB-435): 0.943 µM
GI50 (MOLT-4 leukemia): 1.1 µM
TGI (MOLT-4 leukemia): > 37.5 µM
GI50 (NCI-H226 lung): 4.27 µM
TGI (NCI-H226 lung): 23 µM
GI50 (NCI-H23 lung): 1.63 µM
TGI (NCI-H23 lung): 4.18 µM
GI50 (NCI-H460 lung): 3.15 µM
TGI (NCI-H460 lung): 43.9 µM
GI50 (NCI-H522 lung): 1.44 µM
TGI (NCI-H522 lung): 14.6 µM
GI50 (NCI/ADR-RES ovarian): 1.17 µM
TGI (NCI/ADR-RES ovarian): 5.13 µM
GI50 (OVCAR-3 ovarian): 0.506 µM
TGI (OVCAR-3 ovarian): 1.93 µM
GI50 (OVCAR-4 ovarian): 12.6 µM
TGI (OVCAR-4 ovarian): 62.8 µM
GI50 (OVCAR-5 ovarian): 2.7 µM
TGI (OVCAR-5 ovarian): 11.9 µM
GI50 (OVCAR-8 ovarian): 4.58 µM
TGI (OVCAR-8 ovarian): > 100 µM
GI50 (PC-3 prostate): 1.95 µM
TGI (PC-3 prostate): 17.4 µM
GI50 (RPMI-8226 leukemia): 0.909 µM
TGI (RPMI-8226 leukemia): 3.74 µM
GI50 (RXF 393 renal): 3.35 µM
TGI (RXF 393 renal): 26.6 µM
GI50 (SF-268 CNS): 5.86 µM
TGI (SF-268 CNS): 57.1 µM
GI50 (SF-295 CNS): 0.797 µM
TGI (SF-295 CNS): 3.24 µM
TGI (SF-539 CNS): > 34.4 µM
GI50 (SK-MEL-2 melanoma): 5.87 µM
TGI (SK-MEL-2 melanoma): 22.6 µM
GI50 (SK-MEL-28 melanoma): 8.98 µM
TGI (SK-MEL-28 melanoma): 44.9 µM
GI50 (SK-MEL-5 melanoma): 2.2 µM
TGI (SK-MEL-5 melanoma): 7.89 µM
GI50 (SK-OV-3 ovarian): 2.91 µM
TGI (SK-OV-3 ovarian): 12.7 µM
GI50 (SN12C renal): 2.75 µM
TGI (SN12C renal): 14.4 µM
GI50 (SNB-19 CNS): 3.53 µM
TGI (SNB-19 CNS): > 43.7 µM
GI50 (SNB-75 CNS): 6.74 µM
TGI (SNB-75 CNS): 28.4 µM
GI50 (SR leukemia): 0.309 µM
TGI (SR leukemia): 0.976 µM
GI50 (SW-620 colon): 2.16 µM
TGI (SW-620 colon): 27.1 µM
GI50 (T-47D breast): 2.65 µM
TGI (T-47D breast): > 33 µM
GI50 (TK-10 renal): 4.61 µM
TGI (TK-10 renal): 17.2 µM
GI50 (U251 CNS): 2.25 µM
TGI (U251 CNS): 7.96 µM
GI50 (UACC-257 melanoma): 14.9 µM
TGI (UACC-257 melanoma): 41 µM
GI50 (UACC-62 melanoma): 0.798 µM
TGI (UACC-62 melanoma): 9.72 µM
GI50 (UO-31 renal): 2.55 µM
TGI (UO-31 renal): 13.3 µM
